Measured values: ChEMBL document CHEMBL3217442, “Synthesis and bioevaluation of aryl hydroxamates distinguishing between NAD+ and ATP-dependent DNA ligases” (Medchemcomm, 2012)
Values after ≈ are worked out from the molar mass of the structure shown. Active and inactive are the calls of the source. No cut-off for these calls is given here.

Assays:
Escherichia coli [1] = assay: Antibacterial activity against Escherichia coli GR501 harboring temperature sensitive lig251 mutant rescued with T4 DNA ligase after 20 hrs; format: functional
Salmonella typhimurium [2] = assay: Antibacterial activity against Salmonella typhimurium LT2 expressing LigA after 20 hrs; format: functional, Salmonella enterica subsp. enterica serovar Typhimurium
Salmonella typhimurium [3] = assay: Antibacterial activity against Salmonella typhimurium TT15151 harboring LigA null mutant rescued with ATP-dependent DNA ligase after 20 hrs; format: functional, Salmonella enterica subsp. enterica serovar Typhimurium
[4] = Inhibition of Mycobacterium tuberculosis DNA LigA using 22-mer and 18-mer DNA complementary strand as substrate after 1 hr by 15% polyacrylamide gel electrophoresis
[5] = Inhibition of Bacteriophage […] using 22-mer and 18-mer DNA complementary strand as substrate after 1 hr by 15% polyacrylamide gel electrophoresis; design: species or system Tequatrovirus T4
DNA ligase 1 = DNA ligase 1 (Homo sapiens, UniProt P18858); assay: Inhibition of human DNA ligase 1 expressed in Escherichia coli BL21 (DE3) using 22-mer and 18-mer DNA complementary strand as substrate after 1 hr by 15% polyacrylamide gel electrophoresis
Chain of DNA ligase 1 (P18858 whole entry): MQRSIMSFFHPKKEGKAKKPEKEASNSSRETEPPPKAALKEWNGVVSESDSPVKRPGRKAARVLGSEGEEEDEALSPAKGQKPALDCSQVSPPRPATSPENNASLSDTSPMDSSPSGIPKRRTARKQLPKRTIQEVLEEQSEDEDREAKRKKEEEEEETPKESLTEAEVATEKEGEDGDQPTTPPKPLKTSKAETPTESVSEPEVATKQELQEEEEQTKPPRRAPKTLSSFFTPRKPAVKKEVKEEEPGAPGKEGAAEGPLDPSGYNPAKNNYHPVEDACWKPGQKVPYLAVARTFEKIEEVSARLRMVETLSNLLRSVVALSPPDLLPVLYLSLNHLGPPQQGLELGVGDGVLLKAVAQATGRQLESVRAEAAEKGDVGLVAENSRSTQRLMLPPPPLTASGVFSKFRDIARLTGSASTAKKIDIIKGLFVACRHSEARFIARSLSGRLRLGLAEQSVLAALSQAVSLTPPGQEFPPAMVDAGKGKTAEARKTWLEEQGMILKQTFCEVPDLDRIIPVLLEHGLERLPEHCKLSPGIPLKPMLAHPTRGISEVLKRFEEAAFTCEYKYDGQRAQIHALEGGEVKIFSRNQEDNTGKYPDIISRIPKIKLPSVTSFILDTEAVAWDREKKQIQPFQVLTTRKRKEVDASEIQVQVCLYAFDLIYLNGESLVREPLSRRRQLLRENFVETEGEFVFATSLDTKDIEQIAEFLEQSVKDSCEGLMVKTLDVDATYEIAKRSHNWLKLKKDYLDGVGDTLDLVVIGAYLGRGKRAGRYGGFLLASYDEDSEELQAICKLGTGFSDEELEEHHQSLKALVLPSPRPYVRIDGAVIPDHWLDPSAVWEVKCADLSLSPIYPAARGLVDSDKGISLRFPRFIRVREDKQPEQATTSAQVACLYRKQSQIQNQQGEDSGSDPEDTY

[6] = Ratio of IC50 for Bacteriophage T4 DNA ligase to IC50 for Mycobacterium tuberculosis DNA LigA
[7] = Ratio of IC50 for human DNA ligase 1 to IC50 for Mycobacterium tuberculosis DNA LigA
Bos taurus = species on record: Bos taurus; assay: Displacement of ethidium bromide from calf thymus DNA assessed as relative fluorescence intensity at 250 uM
Escherichia coli [8] = assay: Binding affinity to Escherichia coli pUC18 DNA after 1 hr by gel shift assay
Salmonella typhimurium [9] = assay: Bactericidal activity against Salmonella typhimurium LT2 expressing LigA assessed as bacterial cell viability at 0.5 to 2.5 times MIC after 5 hrs; format: functional, organism-based; conditions: Salmonella enterica subsp. enterica serovar Typhimurium
Salmonella typhimurium [10] = assay: Bactericidal activity against Salmonella typhimurium TT15151 harboring LigA null mutant rescued with ATP-dependent DNA ligase assessed as bacterial cell viability at 0.5 to 2.5 times MIC after 5 hrs; format: functional, organism-based; conditions: Salmonella enterica subsp. enterica serovar Typhimurium
[11] = Competitive inhibition of Mycobacterium tuberculosis DNA LigA using NDA+ as substrate by double reciprocal plot analysis
[12] = Salmonella enterica, TT15151, 20 h
[13] = Salmonella enterica subsp. enterica serovar Typhimurium

Row | Structure (SMILES) | MIC (Escherichia coli [1]; GR501, 20 h) [µg/mL] | MIC (Salmonella typhimurium [3]; [12]) [µg/mL] | IC50 [4] [µM] | IC50 [5] [µM] | Ratio IC50 [6] | Ratio IC50 [7] | MIC (Escherichia coli [1]) | MIC (Salmonella typhimurium [2]; [13]) | further results
1 | O=C(NO)c1ccccc1OCC(O)Cn1cc(-c2ccccc2)nn1 (stereo not drawn) | 40 (≈ 113 µM) | 50 (≈ 141 µM) | 11.4 | 31.4 | 10 | 10 |  |  | MIC (Salmonella typhimurium [2]; Salmonella enterica, LT2, 20 h): 30 µg/mL (≈ 84.7 µM); IC50 (DNA ligase 1): 41.8 µM; Activity (Bos taurus): inactive; Activity (Escherichia coli [8]): inactive
2 | C=CCOc1cc(OCc2cc(Cl)ccc2Cl)ccc1C(=O)NO |  | 200 (≈ 543 µM) |  |  |  |  | inactive | inactive | 
3 | C=CCOc1ccc(OCc2ccc(Br)cc2)cc1C(=O)NO | 80 (≈ 212 µM) | 20 (≈ 52.9 µM) |  |  |  |  |  | inactive | 
4 | O=C(NO)c1ccc2ccccc2c1OCc1cccc(Cl)c1 |  |  | 20 | 12 | 10 | 10 | inactive |  | 
5 | C=CCOc1ccc(OCc2cc(Cl)ccc2Cl)cc1C(=O)NO | 400 (≈ 1090 µM) | 800 (≈ 2170 µM) |  |  |  |  |  | inactive | 
6 | C=CCOc1ccc(C(=O)NO)c(OCC=C)c1 | 150 (≈ 602 µM) |  |  |  |  |  |  |  | MIC (Salmonella typhimurium [2]; Salmonella enterica, LT2, 20 h): 800 µg/mL (≈ 3210 µM); MIC (Salmonella typhimurium [3]; [13]): inactive
7 | C=CCOc1cccc(C(=O)NO)c1OCC=C |  | 400 (≈ 1600 µM) |  |  |  |  | inactive | inactive | 
8 | C=CCOc1ccc(OCc2ccccc2)cc1C(=O)NO | 400 (≈ 1340 µM) | 150 (≈ 501 µM) |  |  |  |  |  | inactive | 
9 | O=C(NO)c1ccccc1OCc1ccc(Cl)c(Cl)c1 |  |  | 20 | < 20 | 10 | 10 | inactive |  | 
10 | CCCCCCOc1c(C(=O)NO)ccc2ccccc12 | > 200 |  | 13.6 | 9.6 | 10 | 10 |  |  | 
11 | O=C(NO)c1ccc2ccccc2c1OCc1ccc(Cl)c(Cl)c1 | > 200 |  | 10.6 | 5.5 | 10 | 10 |  |  | 
12 | C#CCOc1ccc(OCC=C)c(C(=O)NO)c1 | 150 (≈ 607 µM) |  |  |  |  |  |  |  | MIC (Salmonella typhimurium [2]; Salmonella enterica, LT2, 20 h): 600 µg/mL (≈ 2430 µM); MIC (Salmonella typhimurium [3]; [13]): inactive
13 | C=CCOc1cc(OCc2ccc(Br)cc2)ccc1C(=O)NO |  | 40 (≈ 106 µM) |  |  |  |  | inactive | inactive | 
14 | C=CCOc1c(OCc2ccccc2)cccc1C(=O)NO |  |  |  |  |  |  | inactive | inactive | MIC (Salmonella typhimurium [3]; [13]): inactive
15 | C=CCOc1ccccc1C(=O)NO | 90 (≈ 466 µM) | 70 (≈ 362 µM) | 7.07 | 62.3 | 10 | 10 |  |  | MIC (Salmonella typhimurium [2]; Salmonella enterica, LT2, 20 h): 20 µg/mL (≈ 104 µM); Activity (Salmonella typhimurium [9]): Active; Activity (Salmonella typhimurium [10]): Active; IC50 (DNA ligase 1): 59.3 µM; Ki [11]: 4.3 µM; Activity (Bos taurus): inactive; Activity (Escherichia coli [8]): inactive
16 | O=C(NO)c1ccccc1OCc1cccc(Cl)c1 |  |  | 24 | 8 | 10 | 10 | inactive |  | 
17 | C=CCOc1ccc(OCC=C)c(C(=O)NO)c1 | 200 (≈ 802 µM) | 150 (≈ 602 µM) |  |  |  |  |  | inactive | 
